Biological target: [35S]-TBPS binding, rat brain cortical membranes
Assay: Steroid inhibition of [35S]-TBPS binding
Conditions: 3 nM [35S]-TBPS, in the presence of 5 mM GABA
Summary of the method: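 In the presence of […], compounds (DMSO 0.5% final) competed with 3 nM [35S]-TBPS for Sprague-Dawley rat cortical membranes, pH 7.4 phosphate buffer, 90 min, room temperature. Filtration and scintillation counting; specific binding defined by […]; IC50 and maximal inhibition fitted per experiment, averaged as mean ± SEM.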

| SMILES | IC50 [nM] |
| --- | --- |
| COC[C@@]1(O)CC[C@H]2[C@H](CC[C@@H]3[C@@H]2CC[C@]2(C)[C@@H]([C@@H](C)Cn4ccc(C#N)n4)CC[C@@H]32)C1 [Example 36, 1-((R)-2-((3R,5R,8R,9R,10S,13S,14S,17R)-3-hydroxy-3-(methoxymethyl)-13-methylhexadecahydro-1H-cyclopenta[a]phenanthren-17-yl)propyl)-1H-pyrazole-3-carbonitrile] | < 100 |
| C[C@@]1(O)CC[C@H]2[C@H](CC[C@@H]3[C@@H]2CC[C@]2(C)[C@@H](CNC(=O)c4ccccc4)CC[C@@H]32)C1 [Example 3, N-(((3R,5R,8R,9R,10S,13S,14S,17S)-3-hydroxy-3,13-dimethylhexadecahydro-1H-cyclopenta[a]phenanthren-17-yl)methyl)benzamide] | < 100 |
| CCOC[C@@]1(O)CC[C@H]2[C@H](CC[C@@H]3[C@@H]2CC[C@]2(C)[C@@H]([C@@H](CC)Nc4cccc(C#N)c4)CC[C@@H]32)C1 [Example 492, 3-(((R)-1-((3R,5R,8R,9R,10S,13S,14S,17S)-3-(ethoxymethyl)-3-hydroxy-13-methylhexadecahydro-1H-cyclopenta[a]phenanthren-17-yl)propyl)amino)benzonitrile] | 1000 to 10000 |
| C[C@@]1(O)CC[C@H]2[C@H](CC[C@@H]3[C@@H]2CC[C@]2(C)[C@@H](CN4C[C@@H](c5ccccc5)CC4=O)CC[C@@H]32)C1 [Example 9, (R)-1-(((3R,5R,8R,9R,10S,13S,14S,17S)-3-hydroxy-3,13-dimethylhexadecahydro-1H-cyclopenta[a]phenanthren-17-yl)methyl)-4-phenylpyrrolidin-2-one] | 100 to 1000 |
| CCC[C@@]1(O)CC[C@H]2[C@H](CC[C@@H]3[C@@H]2CC[C@]2(C)[C@@H]([C@@H](C)Cn4nnc(C)n4)C(=O)C[C@@H]32)C1 [Example 364, (3R,5R,8R,9R,10S,13S,14S,17R)-3-hydroxy-13-methyl-17-((R)-1-(5-methyl-2H-tetrazol-2-yl)propan-2-yl)-3-propyltetradecahydro-1H-cyclopenta[a]phenanthren-16(2H)-one] | 100 to 1000 |
| C[C@@H](Nc1ccccc1)[C@H]1CC[C@H]2[C@@H]3CC[C@@H]4C[C@](C)(O)CC[C@@H]4[C@H]3CC[C@]12C [Example 25, (3R,5R,8R,9R,10S,13S,14S,17S)-3,13-dimethyl-17-((R)-1-(phenylamino)ethyl)hexadecahydro-1H-cyclopenta[a]phenanthren-3-ol] | < 100 |
| COC[C@@]1(O)CC[C@H]2[C@H](CC[C@@H]3[C@@H]2CC[C@]2(C)[C@@H]([C@@H](C)N4Cc5cc(C#N)ccc5C4=O)CC[C@@H]32)C1 [Example 44, 2-((R)-1-((3R,5R,8R,9R,10S,13S,14S,17S)-3-hydroxy-3-(methoxymethyl)-13-methylhexadecahydro-1H-cyclopenta[a]phenanthren-17-yl)ethyl)-1-oxoisoindoline-5-carbonitrile] | < 100 |
| C[C@@H](NC(=O)c1cccnc1)[C@H]1CC[C@H]2[C@@H]3CC[C@@H]4C[C@](C)(O)CC[C@@H]4[C@H]3CC[C@]12C [Example 29, N—((R)-1-((3R,5R,8R,9R,10S,13S,14S,17S)-3-hydroxy-3,13-dimethylhexadecahydro-1H-cyclopenta[a]phenanthren-17-yl)ethyl)nicotinamide] | 100 to 1000 |
| CCOC[C@@]1(O)CC[C@H]2[C@H](CC[C@@H]3[C@@H]2CC[C@]2(C)[C@@H]([C@@H](CC)Nc4ccc(C#N)nc4)CC[C@@H]32)C1 [Example 503] | 100 to 1000 |
| CCC[C@@]1(O)CC[C@@]2(C)[C@H](CC[C@@H]3[C@@H]2[C@H](O)C[C@]2(C)[C@@H]([C@@H](C)Cn4cc(C#N)cn4)CC[C@@H]32)C1 [Example 337, 1-((R)-2-((3R,5R,8S,9S,10S,11R,13S,14S,17R)-3,11-dihydroxy-10,13-dimethyl-3-propylhexadecahydro-1H-cyclopenta[a]phenanthren-17-yl)propyl)-1H-pyrazole-4-carbonitrile] | 100 to 1000 |
| C[C@H]([C@H]1CC[C@H]2[C@@H]3CC[C@@H]4C[C@](C)(O)CC[C@@H]4[C@H]3CC[C@]12C)N(C)C(=O)c1ccccc1 [Example 20, N-((1R)-1-((3R,5R,9R,10S,13S,14S,17S)-3-hydroxy-3,13-dimethylhexadecahydro-1H-cyclopenta[a]phenanthren-17-yl)ethyl)-N-methylbenzamide] | 100 to 1000 |
| CCC[C@@]1(O)CC[C@H]2[C@H](CC[C@@H]3[C@@H]2CC[C@]2(C)[C@@H]([C@H](C)Cc4ccc(C#N)nc4)CC[C@@H]32)C1 [Example 400, 5-((R)-2-((3R,5R,8R,9R,10S,13R,14S,17R)-3-hydroxy-13-methyl-3-propylhexadecahydro-1H-cyclopenta[a]phenanthren-17-yl)propyl)picolinonitrile] | < 100 |
| C[C@H](N[C@@H](C)[C@H]1CC[C@H]2[C@@H]3CC[C@@H]4C[C@](C)(O)CC[C@@H]4[C@H]3CC[C@]12C)c1ccccc1 [Example 210] | 1000 to 10000 |
| COC[C@@]1(O)CC[C@H]2[C@H](CC[C@@H]3[C@@H]2CC[C@]2(C)[C@@H]([C@@H](C)NC(=O)c4ccc(F)cc4)CC[C@@H]32)C1 [Example 113] | 100 to 1000 |
| COC[C@@]1(O)CC[C@H]2[C@H](CC[C@@H]3[C@@H]2CC[C@]2(C)[C@@H]([C@H](C)NC(=O)c4ccc(F)cc4)CC[C@@H]32)C1 [Example 114] | 1000 to 10000 |
| COC[C@@]1(O)CC[C@H]2[C@H](CC[C@@H]3[C@@H]2CC[C@]2(C)[C@@H]([C@@H](C)Nc4ccc(C#N)cc4C)CC[C@@H]32)C1 [Example 252] | < 100 |
| CCOC[C@@]1(O)CC[C@H]2[C@H](CC[C@@H]3[C@@H]2CC[C@]2(C)[C@@H]([C@H](C)n4cc(C#N)cn4)CC[C@@H]32)C1 [Example 163, 1-((S)-1-((3R,5R,8R,9R,10S,13S,14S,17S)-3-(ethoxymethyl)-3-hydroxy-13-methylhexadecahydro-1H-cyclopenta[a]phenanthren-17-yl)ethyl)-1H-pyrazole-4-carbonitrile] | 1000 to 10000 |
| CCC[C@@]1(O)CC[C@@]2(C)[C@H](CC[C@@H]3[C@@H]2CC[C@]2(C)[C@@H]([C@H](C)Cn4nnc(C)n4)CC[C@@H]32)C1 [Example 314, (3R,5R,8R,9S,10S,13S,14S,17R)-10,13-dimethyl-17-((S)-1-(5-methyl-2H-tetrazol-2-yl)propan-2-yl)-3-propylhexadecahydro-1H-cyclopenta[a]phenanthren-3-ol] | 100 to 1000 |
| CCC[C@@]1(O)CC[C@@]2(C)[C@H](CC[C@@H]3[C@@H]2CC[C@]2(C)[C@@H]([C@@H](C)Cn4nnnc4C)CC[C@@H]32)C1 [Example 315, (3R,5R,8R,9S,10S,13S,14S,17R)-10,13-dimethyl-17-((R)-1-(5-methyl-1H-tetrazol-1-yl)propan-2-yl)-3-propylhexadecahydro-1H-cyclopenta[a]phenanthren-3-ol] | < 100 |
| COC[C@@]1(O)CC[C@H]2[C@H](CC[C@@H]3[C@@H]2CC[C@]2(C)[C@@H]([C@@H](C)Cn4nccc4C#N)CC[C@@H]32)C1 [Example 37, 1-((R)-2-((3R,5R,8R,9R,10S,13S,14S,17R)-3-hydroxy-3-(methoxymethyl)-13-methylhexadecahydro-1H-cyclopenta[a]phenanthren-17-yl)propyl)-1H-pyrazole-5-carbonitrile] | < 100 |
| CCOC[C@@]1(O)CC[C@@]2(C)[C@H](CC[C@H]3C4CC[C@H]([C@@H](C)Nc5ccc(-n6ccc(C#N)n6)cn5)[C@@]4(C)CC[C@@H]32)C1 (some centres unmarked) [Example 502] | 100 to 1000 |
| CC[C@]12CC[C@H]3[C@@H](CC[C@@H]4C[C@](C)(O)CC[C@@H]43)[C@@H]1CC[C@@H]2[C@H](C)Cn1cc(C#N)cn1 [Example 318, 1-((S)-2-((3R,5R,8R,9R,10S,13S,14S,17R)-13-ethyl-3-hydroxy-3-methylhexadecahydro-1H-cyclopenta[a]phenanthren-17-yl)propyl)-1H-pyrazole-4-carbonitrile] | < 100 |
| C[C@@H](Cn1nccn1)[C@H]1CC[C@H]2[C@@H]3CC[C@H]4C[C@](C)(O)CC[C@@H]4[C@H]3CC[C@]12C [Example 57, (3R,5S,8R,9R,10S,13S,14S,17R)-17-((R)-1-(2H-1,2,3-triazol-2-yl)propan-2-yl)-3,13-dimethylhexadecahydro-1H-cyclopenta[a]phenanthren-3-ol] | 100 to 1000 |
| CCOC[C@@]1(O)CC[C@H]2[C@H](CC[C@@H]3[C@@H]2CC[C@]2(C)[C@@H]([C@@H](C)n4ncc(C#N)c4N)CC[C@@H]32)C1 [Example 160, 5-amino-1-((R)-1-((3R,5R,8R,9R,10S,13S,14S,17S)-3-(ethoxymethyl)-3-hydroxy-13-methylhexadecahydro-1H-cyclopenta[a]phenanthren-17-yl)ethyl)-1H-pyrazole-4-carbonitrile] | 1000 to 10000 |
| CCC[C@@]1(O)CC[C@@]2(COC)[C@H](CC[C@H]3[C@@H]4CC[C@H]([C@@H](C)Cn5nnc(C)n5)[C@@]4(C)CC[C@@H]32)C1 [Example 319, (3R,5R,8S,9S,10R,13S,14S,17R)-10-(methoxymethyl)-13-methyl-17-((R)-1-(5-methyl-2H-tetrazol-2-yl)propan-2-yl)-3-propylhexadecahydro-1H-cyclopenta[a]phenanthren-3-ol] | < 100 |
| COc1cncc(C[C@H](C)[C@H]2CC[C@H]3[C@@H]4CC[C@@H]5C[C@](C)(O)CC[C@@H]5[C@H]4CC[C@]23C)c1 [Example 432] | < 100 |
